In patent US8461305B2, “L-fucose α1→6 specific lectin” (J-Oil Mills, Inc., priority 2008, dated 2013):

Assay: frontal affinity chromatography (FAC), association constant to PA sugar chains without L-fucose
Assay type: binding
In short: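 Lectin coupled via primary amines to NHS-activated sepharose in a miniature column, run in TBS (pH 7.4) at 0.125 ml/min and 25 degrees C. PA sugar chains (3.75 nM or 7.5 nM) applied in excess, with elution monitored by fluorescence (ex 310/em 380 nm). Ka calculated from front-end delay (V−Vo) versus PA rhamnose and effective ligand amount (Bt).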

Naematoloma sublateritium lectin [NSL]
not detected at all: binding to sugar chain not having L-fucose (FAC)
<1000 M⁻¹: association constant Ka (Sugar chain No. 001, sugar chain not having L-fucose) | association constant Ka (Sugar chain No. 002, sugar chain not having L-fucose) | association constant Ka (Sugar chain No. 003, sugar chain not having L-fucose) | association constant Ka (Sugar chain No. 004, sugar chain not having L-fucose) | association constant Ka (Sugar chain No. 005, sugar chain not having L-fucose) | association constant Ka (Sugar chain No. 006, sugar chain not having L-fucose) | association constant Ka (Sugar chain No. 007, sugar chain not having L-fucose) | association constant Ka (Sugar chain No. 008, sugar chain not having L-fucose) | association constant Ka (Sugar chain No. 009, sugar chain not having L-fucose) | association constant Ka (Sugar chain No. 010, sugar chain not having L-fucose) | association constant Ka (Sugar chain No. 011, sugar chain not having L-fucose) | association constant Ka (Sugar chain No. 012, sugar chain not having L-fucose) | association constant Ka (Sugar chain No. 013, sugar chain not having L-fucose) | association constant Ka (Sugar chain No. 014, sugar chain not having L-fucose) | association constant Ka (Sugar chain No. 101, sugar chain not having L-fucose) | association constant Ka (Sugar chain No. 103, sugar chain not having L-fucose) | association constant Ka (Sugar chain No. 104, sugar chain not having L-fucose) | association constant Ka (Sugar chain No. 105, sugar chain not having L-fucose) | association constant Ka (Sugar chain No. 107, sugar chain not having L-fucose) | association constant Ka (Sugar chain No. 108, sugar chain not having L-fucose) | association constant Ka (Sugar chain No. 301, sugar chain not having L-fucose) | association constant Ka (Sugar chain No. 304, sugar chain not having L-fucose) | association constant Ka (Sugar chain No. 305, sugar chain not having L-fucose) | association constant Ka (Sugar chain No. 307, sugar chain not having L-fucose) | association constant Ka (Sugar chain No. 308, sugar chain not having L-fucose) | association constant Ka (Sugar chain No. 313, sugar chain not having L-fucose) | association constant Ka (Sugar chain No. 314, sugar chain not having L-fucose) | association constant Ka (Sugar chain No. 323, sugar chain not having L-fucose) | association constant Ka (Sugar chain No. 501, sugar chain not having L-fucose) | association constant Ka (Sugar chain No. 502, sugar chain not having L-fucose) | association constant Ka (Sugar chain No. 503, sugar chain not having L-fucose) | association constant Ka (Sugar chain No. 504, sugar chain not having L-fucose) | association constant Ka (Sugar chain No. 701, sugar chain not having L-fucose) | association constant Ka (Sugar chain No. 702, sugar chain not having L-fucose) | association constant Ka (Sugar chain No. 703, sugar chain not having L-fucose) | association constant Ka (Sugar chain No. 704, sugar chain not having L-fucose) | association constant Ka (Sugar chain No. 705, sugar chain not having L-fucose) | association constant Ka (Sugar chain No. 706, sugar chain not having L-fucose) | association constant Ka (Sugar chain No. 707, sugar chain not having L-fucose) | association constant Ka (Sugar chain No. 708, sugar chain not having L-fucose) | association constant Ka (Sugar chain No. 709, sugar chain not having L-fucose) | association constant Ka (Sugar chain No. 710, sugar chain not having L-fucose) | association constant Ka (Sugar chain No. 711, sugar chain not having L-fucose) | association constant Ka (Sugar chain No. 712, sugar chain not having L-fucose) | association constant Ka (Sugar chain No. 713, sugar chain not having L-fucose) | association constant Ka (Sugar chain No. 715, sugar chain not having L-fucose) | association constant Ka (Sugar chain No. 716, sugar chain not having L-fucose) | association constant Ka (Sugar chain No. 717, sugar chain not having L-fucose) | association constant Ka (Sugar chain No. 724, sugar chain not having L-fucose) | association constant Ka (Sugar chain No. 725, sugar chain not having L-fucose) | association constant Ka (Sugar chain No. 728, sugar chain not having L-fucose) | association constant Ka (Sugar chain No. 732, sugar chain not having L-fucose) | association constant Ka (Sugar chain No. 733, sugar chain not having L-fucose) | association constant Ka (Sugar chain No. 734, sugar chain not having L-fucose) | association constant Ka (Sugar chain No. 735, sugar chain not having L-fucose) | association constant Ka (Sugar chain No. 736, sugar chain not having L-fucose) | association constant Ka (Sugar chain No. 737, sugar chain not having L-fucose) | association constant Ka (Sugar chain No. 738, sugar chain not having L-fucose) | association constant Ka (Sugar chain No. 901, sugar chain not having L-fucose) | association constant Ka (Sugar chain No. 902, sugar chain not having L-fucose) | association constant Ka (Sugar chain No. 903, sugar chain not having L-fucose) | association constant Ka (Sugar chain No. 905, sugar chain not having L-fucose) | association constant Ka (Sugar chain No. 907, sugar chain not having L-fucose)

Aspergillus oryzae lectin [AOL, reference compound]
18000 M⁻¹: association constant Ka (Sugar chain No. 301, 25 degrees C.)
7300 M⁻¹: association constant Ka (Sugar chain No. 005, 25 degrees C.)
<1000 M⁻¹: association constant Ka (Sugar chain No. 001, 25 degrees C.) | association constant Ka (Sugar chain No. 002, 25 degrees C.) | association constant Ka (Sugar chain No. 003, 25 degrees C.) | association constant Ka (Sugar chain No. 004, 25 degrees C.) | association constant Ka (Sugar chain No. 006, 25 degrees C.) | association constant Ka (Sugar chain No. 007, 25 degrees C.) | association constant Ka (Sugar chain No. 009, 25 degrees C.) | association constant Ka (Sugar chain No. 010, 25 degrees C.) | association constant Ka (Sugar chain No. 011, 25 degrees C.) | association constant Ka (Sugar chain No. 012, 25 degrees C.) | association constant Ka (Sugar chain No. 013, 25 degrees C.) | association constant Ka (Sugar chain No. 014, 25 degrees C.) | association constant Ka (Sugar chain No. 101, 25 degrees C.) | association constant Ka (Sugar chain No. 103, 25 degrees C.) | association constant Ka (Sugar chain No. 104, 25 degrees C.) | association constant Ka (Sugar chain No. 105, 25 degrees C.) | association constant Ka (Sugar chain No. 107, 25 degrees C.) | association constant Ka (Sugar chain No. 108, 25 degrees C.) | association constant Ka (Sugar chain No. 305, 25 degrees C.) | association constant Ka (Sugar chain No. 307, 25 degrees C.) | association constant Ka (Sugar chain No. 313, 25 degrees C.) | association constant Ka (Sugar chain No. 314, 25 degrees C.) | association constant Ka (Sugar chain No. 323, 25 degrees C.) | association constant Ka (Sugar chain No. 501, 25 degrees C.) | association constant Ka (Sugar chain No. 502, 25 degrees C.) | association constant Ka (Sugar chain No. 503, 25 degrees C.) | association constant Ka (Sugar chain No. 504, 25 degrees C.) | association constant Ka (Sugar chain No. 701, 25 degrees C.) | association constant Ka (Sugar chain No. 702, 25 degrees C.) | association constant Ka (Sugar chain No. 703, 25 degrees C.) | association constant Ka (Sugar chain No. 704, 25 degrees C.) | association constant Ka (Sugar chain No. 705, 25 degrees C.) | association constant Ka (Sugar chain No. 706, 25 degrees C.) | association constant Ka (Sugar chain No. 707, 25 degrees C.) | association constant Ka (Sugar chain No. 708, 25 degrees C.) | association constant Ka (Sugar chain No. 709, 25 degrees C.) | association constant Ka (Sugar chain No. 710, 25 degrees C.) | association constant Ka (Sugar chain No. 711, 25 degrees C.) | association constant Ka (Sugar chain No. 712, 25 degrees C.) | association constant Ka (Sugar chain No. 713, 25 degrees C.) | association constant Ka (Sugar chain No. 715, 25 degrees C.) | association constant Ka (Sugar chain No. 716, 25 degrees C.) | association constant Ka (Sugar chain No. 717, 25 degrees C.) | association constant Ka (Sugar chain No. 724, 25 degrees C.) | association constant Ka (Sugar chain No. 725, 25 degrees C.) | association constant Ka (Sugar chain No. 728 (as listed in Table 7), 25 degrees C.) | association constant Ka (Sugar chain No. 732, 25 degrees C.) | association constant Ka (Sugar chain No. 733, 25 degrees C.) | association constant Ka (Sugar chain No. 734, 25 degrees C.) | association constant Ka (Sugar chain No. 735, 25 degrees C.) | association constant Ka (Sugar chain No. 736, 25 degrees C.) | association constant Ka (Sugar chain No. 737, 25 degrees C.) | association constant Ka (Sugar chain No. 738, 25 degrees C.) | association constant Ka (Sugar chain No. 901, 25 degrees C.) | association constant Ka (Sugar chain No. 902, 25 degrees C.) | association constant Ka (Sugar chain No. 903, 25 degrees C.) | association constant Ka (Sugar chain No. 905, 25 degrees C.) | association constant Ka (Sugar chain No. 906, 25 degrees C.) | association constant Ka (Sugar chain No. 907, 25 degrees C.)
69000 M⁻¹: association constant Ka (Sugar chain No. 008, 25 degrees C.)
20000 M⁻¹: association constant Ka (Sugar chain No. 304, 25 degrees C.) | association constant Ka (Sugar chain No. 308, 25 degrees C.)
